Test results: patent US20050043534A1, “Modulators of ceramidase and methods of used based thereon” (priority 2001, published 2005)
Several values for one entry are separate records, joined by “and”; a condition that tells them apart may be missing. Identical values can stand only once. Entries after “also recorded” stand apart in the source; their conditions may differ.

Experiments:
[1] = tested on: mouse fibroblast cells, L929; test: TNFα-induced PGE2 release from L929 cells; assay type: cell-based; details: preliminary data
Excerpt: Interleukin-1 is a major inducer of inflammation and TNF is an important regulator of the reaction. Both cytokines can activate ceramidase, and thus inhibiting the activity of ceramidase can result in an anti-inflammatory effect. This may involve the prevention of the formation of sphingosine and sphingosine phosphate which have pro-inflammatory effects. Also, inhibition of ceramidase may prevent the hyperproliferation of immune cells that are important for inflammation. […] The release of PGE2 is also shown to be inhibited by D-(N-myristolyamino)-1-phenyl-1-propanol), D-MAPP, which is an inhibitor of one of the ceramidase. This observation may be important for inhibiting inflammatory reactions that occur in conditions, such as but not limited to rheumatoid arthritis. Thus, it is possible to treat or prevent inflammation by regulating the level of cellular ceramide using the method of the invention. As discussed above, ceramide level can be increased by administering compounds of the present invention that can inhibit mitochondrial ceramidase.

[2] = tested on: MCF7 human breast carcinoma cells; test: MTT cell viability assay, MCF7 cells; assay type: cell-based; details: 18 hours treatment
Description: The cells were contained at 37° C. in a humidified atmosphere containing 5% CO2 overnight. On Day 2, the cells were treated with the compound of interest which was dissolved in 100% ethanol. […] The control is a sample without the compound of interest.

[3] = tested on: human embryonal kidney cells HEK-293; test: MTT cell viability assay, HEK-293 cells; assay type: cell-based; details: 18 hours treatment
Description: MCF7 human breast carcinoma cells (ATCC No. HTB-22) and human embryonal kidney cells HEK-293 (ATCC No. CRL-1573) were purchased from American Type Culture Collection.
To investigate the effect of the compound of interest on each of these cell lines, on Day 1, about 50 μL (about 5,000 cells) of the MCF7 or HEK-293 cells were plated down into 96-well plate which contains RPMI 1640 1× (MOD) media (purchased from Media Tech) containing L-glutamine and 10% fetal calf serum (purchased from Gibco). The cells were contained at 37° C. in a humidified atmosphere containing 5% CO2 overnight. On Day 2, the cells were treated with the compound of interest which was dissolved in 100% ethanol. To facilitate dissolution of the compound of interest, a 98% ethanol/2% dodecane can be used as the solvent instead of 100% ethanol. […] The cells were treated with the compound of interest for 18 hours after which the effect on cell viability was measured by MTT assay (Mossman, T. (1983) J. Immuno. Meth. 65, 55-63; and Berridge, M. V. and Tan, A. S. (1993) Archives of Biochemistry & Biophysics, 303, 474-482) as described below.
MTT Assay: • (1) Add to each well 25 μL of MTT stock solution (5 mg/mL in PBS); • (2) Incubate for 5 hours; • (3) Add 100 μL of lysing buffer (20% SDS (w/v), 50% N,N-Dimethyl formamide (v/v)) and stand overnight; • (4) read plate at 595 nm.

mitochondrial ceramidase = mitochondrial ceramidase (Rattus norvegicus, UniProt Q91XT9); test: mitochondrial ceramidase (mt-CDase) activity, radioactive assay or HPLC assay; assay type: biochemical; details: for effect on mt-CDase activity (in words): concentrations as stated at the place; for inhibition at 50 µM: inhibitor at 0.625 mole % (50 μM), read-out: inhibition (maximal inhibition) of mt-CDase activity; for IC50: substrate D-erythro-ceramide 50 μM; for IC50 (50% inhibition of mt-CDase activity): substrate D-erythro-ceramide 0.625 mole %; for type of inhibition (double reciprocal analysis: Km increased, Vmax unchanged): varying D-erythro-ceramide concentration; for inhibition of mt-CDase activity: inhibitor at 0.6 mole %; for increase in ceramide hydrolysis: tested at 0-5 mole % (0-400 μM), [3H]-C16-ceramide 0.625 mole %; for extent of inhibition of ceramidase: sphingosine stereoisomers at higher concentrations (FIG. 4b)
Chain of mitochondrial ceramidase (Q91XT9 whole entry): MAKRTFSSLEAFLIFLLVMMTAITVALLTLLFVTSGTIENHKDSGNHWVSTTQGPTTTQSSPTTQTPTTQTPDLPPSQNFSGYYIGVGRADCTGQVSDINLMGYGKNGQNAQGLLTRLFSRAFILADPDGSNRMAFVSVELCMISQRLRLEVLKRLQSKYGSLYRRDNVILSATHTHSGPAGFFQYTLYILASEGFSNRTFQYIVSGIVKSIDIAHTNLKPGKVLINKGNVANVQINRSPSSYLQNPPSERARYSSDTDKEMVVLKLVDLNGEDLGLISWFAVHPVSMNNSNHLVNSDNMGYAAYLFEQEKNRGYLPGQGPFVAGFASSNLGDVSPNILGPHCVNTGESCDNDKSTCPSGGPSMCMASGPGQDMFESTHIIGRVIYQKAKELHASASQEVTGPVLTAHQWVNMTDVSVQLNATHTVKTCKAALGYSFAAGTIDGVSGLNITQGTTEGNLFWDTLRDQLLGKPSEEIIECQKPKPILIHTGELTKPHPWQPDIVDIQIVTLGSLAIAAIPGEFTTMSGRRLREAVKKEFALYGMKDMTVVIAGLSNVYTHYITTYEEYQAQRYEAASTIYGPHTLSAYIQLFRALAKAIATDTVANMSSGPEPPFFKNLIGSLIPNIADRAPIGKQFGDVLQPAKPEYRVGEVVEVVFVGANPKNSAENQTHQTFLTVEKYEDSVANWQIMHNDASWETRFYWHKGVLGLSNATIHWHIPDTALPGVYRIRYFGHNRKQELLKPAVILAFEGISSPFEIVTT
Description: The enzymatic activity of mitochondrial ceramidase was determined by either one of the two following methods:
a. Radioactive assay: The mt-CDase activity was determined by measuring the release of radioactive fatty acid from tritiated ceramide ([^3H]-C16-Cer), labeled in the acyl chain. Briefly, organic solutions of ceramide and its analogues were initially mixed together, solvents were completely evaporated under nitrogen, then the dried lipids were dispersed in Triton-X 100 by sonication and vigorous vortexing. The reaction assay contained (in a final volume of 200 μl): enzyme (5-10 ng) and 10 nmoles of tritiated C16-ceramide (1×10^5 dpm) delivered in 100 μl of 1% Triton X-100 micelles in a glycine buffer pH 9.5 (200 mM).
b. HPLC-assay: The Mt-CDase activity was also determined by measuring the amount of sphingosine released. Basically the assay was initially the same as described above but using non-radioactive ceramide. The reaction was stopped with 800 μl of chloroform: methanol (2:1 v/v) mixture followed by the addition of phyto-sphingosine (0.5 nmoles) and dihydro-sphingosine (1 nmole) as internal standard and carrier, respectively. The reaction mix was then extracted with NaOH (50 μl, 1N), and the lower chloroform layer containing the sphingosine was further washed with water (100 μl) and dried. The released sphingosine was quantified as the ortho-phthaldehyde (OPA) derivatives as described (30). […] The solvent system was methyl alcohol: potassium phosphate buffer (5 mM), pH 7.0 (90:10 v/v) at a flow rate of 1 ml/min. […] Activity was determined relative to the phytosphingosine OPA peak.
The effects of various compounds of the invention which are stereochemical and structural analogues of ceramide and sphingosine on mt-CDase were investigated. […] Results were expressed as percent of the control ceramidase activity.

[4] = Table 1, ceramide analogues, hydrolysis of D-erythro-C16 or C18-ceramide at 0.625 mole % (50 μM)
[5] = Table 2, sphingosine analogues, hydrolysis of D-erythro-ceramide at 0.625 mole % (50 μM)

Molecule: CCCCCCCCCCCCCC(=O)NC(C)C(O)c1ccccc1 [D-MAPP]
- release of PGE2 [1]: inhibited

Molecule: CCCCCCCCCCCCC/C=C/[C@@H](O)[C@H](CO)NC(=O)NCCCCCCCCCCCCCCCC [Compound C16-urea-Cer, (2S, 3R,4E)-N-[2-(1,3-Dihydroxy-4E-octadecene)]-N′-hexadecane-urea]
- effect on cell growth and proliferation (in words) [2]: potent inhibitor of cell growth and proliferation
- effect on cell growth and proliferation (in words) [3]: potent inhibitor of cell growth and proliferation
- hydrolysis by mt-CDase (substrate or not, in words) (mitochondrial ceramidase): not a substrate
- Estimated IC50 (mole %) (mitochondrial ceramidase; [4]): 0.33 mole %
- effect on mt-CDase activity (in words) (mitochondrial ceramidase): potent inhibitor
- inhibition at 50 µM (mitochondrial ceramidase): 75%
- IC50 (mitochondrial ceramidase): 25 µM
- IC50 (50% inhibition of mt-CDase activity) (mitochondrial ceramidase): 0.33 mole % and 0.31 mole %
- type of inhibition (double reciprocal analysis: Km increased, Vmax unchanged) (mitochondrial ceramidase): competitive inhibitor
- melting point: 105 to 106 °C

Molecule: CCCCCCCCCCCCC/C=C/[C@@H](O)[C@@H](N)CO [D-e-Sph, D-erythro-sphingosine, reference compound]
- Estimated IC50 (mole %) (mitochondrial ceramidase; [5]): 0.04 mole %
- inhibition of mt-CDase activity (mitochondrial ceramidase): totally inhibited
- inhibition at 50 µM (mitochondrial ceramidase): 98%
- IC50 (mitochondrial ceramidase): 3.3 µM
- IC50 (50% inhibition of mt-CDase activity) (mitochondrial ceramidase): 0.04 mole %

Molecule: CCCCCCCCCCCCC/C=C/[C@@H](O)[C@@H](N)COP(=O)(O)O [Sph-1-P, D-erythro-sphingosine 1-phosphate]
- Estimated IC50 (mole %) (mitochondrial ceramidase; [5]): activator
- increase in ceramide hydrolysis (mitochondrial ceramidase): 180%

Molecule: CCCCCCCCCCCCCCCC(=O)O [palmitic acid, reference compound]
- effect on mt-CDase activity (in words) (mitochondrial ceramidase): no significant variation

Molecule: CCCCCCCCCCCCC/C=C/[C@@H](O)[C@H](N)CO [D-t-Sph, D-threo-sphingosine]
- Estimated IC50 (mole %) (mitochondrial ceramidase; [5]): 0.11 mole %
- extent of inhibition of ceramidase (mitochondrial ceramidase): 75%

Molecule: dihydroceramide [reference compound]
- hydrolysis by mt-CDase (substrate or not, in words) (mitochondrial ceramidase): significant loss of activity as a substrate

Molecule: CCCCCCCCCCCCC/C=C/[C@@H](OC)[C@@H](N)CO [Compound 3-O-Me-Sph, 3-O-methyl-D-erythro-sphingosine]
- Estimated IC50 (mole %) (mitochondrial ceramidase; [5]): no effect
- inhibition of mt-CDase activity (mitochondrial ceramidase): no effect

Molecule: CCCCCCCCCCCCC/C=C/[C@H](O)[C@H](CO)NC(=O)CCCCCCCCCCCCCCCCC [L-t-C18-Cer, L-threo-C18-ceramide]
- Estimated IC50 (mole %) (mitochondrial ceramidase; [4]): 0.11 mole %
- IC50 (mitochondrial ceramidase): 8.8 µM
- IC50 (50% inhibition of mt-CDase activity) (mitochondrial ceramidase): 0.11 mole %

Molecule: CCCCCCCCCCCCC/C=C/[C@H](O)[C@H](N)CO [L-e-Sph, L-erythro-sphingosine]
- Estimated IC50 (mole %) (mitochondrial ceramidase; [5]): 0.09 mole %
- extent of inhibition of ceramidase (mitochondrial ceramidase): 98%

Molecule: CCCCCCCCCCCCC/C=C\[C@@H](O)[C@H](CO)NC(=O)CCCCCCCCCCCCCCC [cis-D-e-C16-Cer, cis-D-erythro-C16-ceramide]
- Estimated IC50 (mole %) (mitochondrial ceramidase; [4]): no effect
- effect on mt-CDase activity (in words) (mitochondrial ceramidase): no significant effect
- effect on mt-CDase activity (in words) (mitochondrial ceramidase; listed as cis D-erythro-ceramide): did not inhibit the enzyme
- effect on mt-CDase activity (in words) (mitochondrial ceramidase; listed as cis-D-e-ceramide): do not interact with the enzyme

Molecule: CCCCCCCCCCCCC/C=C/[C@H](O)[C@@H](CO)NC(=O)CCCCCCCCCCCCCCCCC [L-e-C18-Cer, L-erythro-C18-ceramide]
- Estimated IC50 (mole %) (mitochondrial ceramidase; [4]): 0.26 mole %
- IC50 (mitochondrial ceramidase): 20 µM
- IC50 (50% inhibition of mt-CDase activity) (mitochondrial ceramidase): 0.26 mole %
- type of inhibition (double reciprocal analysis: Km increased, Vmax unchanged) (mitochondrial ceramidase): competitive

Molecule: CCCCCCCCCCCCC/C=C/[C@@H](O)[C@H](COP(=O)(O)O)NC(=O)CCCCCCCCCCCCCCC [Cer-1-P, D-erythro-C16-ceramide-1-phosphate]
- Estimated IC50 (mole %) (mitochondrial ceramidase; [4]): activator
- effect on mt-CDase activity (in words) (mitochondrial ceramidase): do not interact with the enzyme
- increase in ceramide hydrolysis (mitochondrial ceramidase): 220%

Molecule: CCCCCCCCCCCCC/C=C/[C@@H](O)[C@H](CO)NC [N-Me-Sph, N-methyl-D-erythro-sphingosine]
- inhibitory effect on mt-CDase (mitochondrial ceramidase; FIG. 6a, concentration not stated directly): 75%
- Estimated IC50 (mole %) (mitochondrial ceramidase; [5]): 0.13 mole %
- IC50 (50% inhibition of mt-CDase activity) (mitochondrial ceramidase): 0.13 mole %

Molecule: ceramide [reference compound]
- Km of hydrolysis (mitochondrial ceramidase; ceramide as substrate): 1.3 mole %

Molecule: CCCCCCCCCCCCC/C=C/C(=O)[C@@H](N)CO [Compound 3-keto-Sph, 3-keto-sphingosine]
- Estimated IC50 (mole %) (mitochondrial ceramidase; [5]): weak
- effect on mt-CDase activity (in words) (mitochondrial ceramidase): weaker; also recorded: significant loss of inhibition
- inhibition at 50 µM (mitochondrial ceramidase): 35%

Molecule: CCCCCCCCCCCCCC#CC(=O)[C@@H](N)CO [3-keto-deh-Sph, 3-keto-dehydrosphingosine]
- Estimated IC50 (mole %) (mitochondrial ceramidase; [5]): weak
- effect on mt-CDase activity (in words) (mitochondrial ceramidase): weaker
- inhibition at 50 µM (mitochondrial ceramidase): 15%

Molecule: CCCCCCCCCCCCC/C=C/[C@@H](O)[C@H](COC)NC(=O)CCCCCCCCCCCCCCC [1-O-Me-C16-Cer, 1-O-methyl-D-erythro-C16-ceramide]
- Estimated IC50 (mole %) (mitochondrial ceramidase; [4]): no effect
- effect on mt-CDase activity (in words) (mitochondrial ceramidase; listed as 1-O-Me-ceramide): do not interact with the enzyme
- effect on mt-CDase activity (in words) (mitochondrial ceramidase; listed as 1-O-methyl ceramide): no effect

Molecule: CCCCCCCCCCCCC/C=C/[C@@H](O)[C@@H](CO)NC(=O)CCCCCCCCCCCCCCCCC [D-t-C18-Cer, D-threo-C18-ceramide]
- Estimated IC50 (mole %) (mitochondrial ceramidase; [4]): 0.21 mole %
- IC50 (mitochondrial ceramidase): 16.6 µM
- IC50 (50% inhibition of mt-CDase activity) (mitochondrial ceramidase): 0.21 mole %
